The test system of series [1] is patients with recent onset RA. Put plainly: MTX monotherapy efficacy in recent-onset RA patients (BeSt study subcohort), DAS response at 6 months. The format is in vivo, human. From the text: The 205 patients enrolled in this study comprised a subcohort of the 508 patients who participated in the BeSt study. (5) The BeSt study is a randomized, multicenter, single-blinded, clinical study comparing the clinical efficacy of four different treatment strategies in recent onset RA including sequential monotherapy (n=126 starting with MTX), step up to combination therapy of MTX with sulfasalazine (SSZ, n=121 starting with MTX), initial combination therapy with MTX, SSZ and a high tapered dose of prednisolone (n=133), or initial biologic therapy with infliximab plus MTX (n=128). Inclusion criteria for patients in the study comprise the American College of Rheumatology (ACR) 1987 criteria for RA (23), an age ≧18 years, and a disease duration of <2 years. Patients were also required to have active RA, defined as ≧6 swollen joints (out of 66) and ≧6 tender joints (out of 68) and either an erythrocyte sedimentation rate (ESR) ≧28 mm/hour or a score of ≧20 mm on 100 mm visual analogue scale (VAS) for patient's assessment of global health (0=best, 100=worst). […]
Patients allocated initial monotherapy with MTX with available DNA samples (n=205) were included in the current analysis. […] A research nurse who was blinded to the allocated treatment group assessed the DAS every 3 months. […]

The test system of the next series is RA patients. Put plainly: Replication cohort of RA patients on MTX monotherapy (BeSt and UMCN), response at 6 months. The format is in vivo, human. The following applies: replication group n=38 (n=17 responders); average MTX dosage 19 mg weekly (range 5-25 mg weekly). The procedure:
Thirty-eight patients were recruited to replicate the genetic model. The validation cohort data were collected after development of the predictive model, but the investigators were blinded to either the clinical parameters or the genotyping results for the replication group. Fourteen patients were available from the BeSt study; they were treated with initial MTX monotherapy, but DNA samples were obtained after the clinical pharmacogenetic model was developed. Twenty-four patients were available from the RA cohort of the rheumatology department at the University Medical Center Nijmegen (UMCN), consisting of 553 patients (5, 51). Patients were eligible for the replication cohort if they fulfilled the ACR 1987 criteria for RA, started with MTX monotherapy, had not been treated previously with DMARDs other than antimalarial agents, and had disease duration of less than 2 years. In addition, clinical data comprising the prediction model and DNA samples had to be available. In the UMCN cohort, 352 patients were recorded as having received MTX at any time point. […]
The response at 6 months after starting MTX treatment in the group of RA patients (n=38) in the replication model was 45% (n=17), with an average MTX dosage of 19 mg weekly (range 5-25 mg weekly). […] The calculated simple scores in the replication group of RA patients ranged from 1 to 9. […]

`CN(Cc1cnc2nc(N)nc(N)c2n1)c1ccc(C(=O)N[C@@H](CCC(=O)O)C(=O)O)cc1` [MTX, Methotrexate]: the “responders (DAS of ≦2.4, good clinical response)” value in series [1] (at 6 months of treatment with MTX, oral MTX 7.5 mg weekly increasing to 15 mg, stepwise to 25 mg weekly, with folic acid 1 mg daily, 186 patients evaluable (n=87 responders)) was 47 % of patients. Moreover, the “patients who discontinued MTX permanently after experiencing ADEs” value in series [1] (of the 205 patients, within first 6 months) worked out at 10 patients. For the same compound, in the series with RA patients, the “response at 6 months after starting MTX treatment” value was found to be 45%.
